± gives the standard deviation of the averaged measurements.
Legend:
Details in all cases: 72 h
Caco-2 [1] = assay: cell viability relative to DMSO; higher = less toxic
Calu-3 [2] = assay: as above
HepG2 [3] = assay: as above
U2OS [4] = assay: as above
Vero E6 [5] = assay: as above
Caco-2 [6] = assay: relative viability EC50 (midpoint between 100% and the lowest measured viability); higher = less toxic
Calu-3 [7] = assay: as above
HepG2 [8] = assay: as above
U2OS [9] = assay: as above
Vero E6 [10] = assay: as above
Caco-2 [11] = assay: drug sensitivity score (DSS) for viability; higher = more toxic; extreme values may be limits of the assay
Calu-3 [12] = assay: as above
HepG2 [13] = assay: as above
U2OS [14] = assay: as above
Vero E6 [15] = assay: as above

| SMILES | cell viability (Caco-2 [1]; 1 nM) [%] | cell viability (Caco-2 [1]; 10 nM) [%] | cell viability (Caco-2 [1]; 100 nM) [%] | cell viability (Caco-2 [1]; 1000 nM) [%] | cell viability (Caco-2 [1]; 10000 nM) [%] | cell viability (Calu-3 [2]; 1 nM) [%] | cell viability (Calu-3 [2]; 10 nM) [%] | cell viability (Calu-3 [2]; 100 nM) [%] | cell viability (Calu-3 [2]; 1000 nM) [%] | cell viability (Calu-3 [2]; 10000 nM) [%] | cell viability (HepG2 [3]; 1 nM) [%] | cell viability (HepG2 [3]; 10 nM) [%] | cell viability (HepG2 [3]; 100 nM) [%] | cell viability (HepG2 [3]; 1000 nM) [%] | cell viability (HepG2 [3]; 10000 nM) [%] | cell viability (U2OS [4]; 1 nM) [%] | cell viability (U2OS [4]; 10 nM) [%] | cell viability (U2OS [4]; 100 nM) [%] | cell viability (U2OS [4]; 1000 nM) [%] | cell viability (U2OS [4]; 10000 nM) [%] | cell viability (Vero E6 [5]; 1 nM) [%] | cell viability (Vero E6 [5]; 10 nM) [%] | cell viability (Vero E6 [5]; 100 nM) [%] | cell viability (Vero E6 [5]; 1000 nM) [%] | cell viability (Vero E6 [5]; 10000 nM) [%] | relative viability EC50 (Caco-2 [6]) [µM] | relative viability EC50 (Calu-3 [7]) [µM] | relative viability EC50 (HepG2 [8]) [µM] | relative viability EC50 (U2OS [9]) [µM] | relative viability EC50 (Vero E6 [10]) [µM] | drug sensitivity score (Caco-2 [11]) | drug sensitivity score (Calu-3 [12]) | drug sensitivity score (HepG2 [13]) | drug sensitivity score (U2OS [14]) | drug sensitivity score (Vero E6 [15]) |
| --- | --- | --- | --- | --- | --- | --- | --- | --- | --- | --- | --- | --- | --- | --- | --- | --- | --- | --- | --- | --- | --- | --- | --- | --- | --- | --- | --- | --- | --- | --- | --- | --- | --- | --- | --- |
| O=c1[nH]ccc2cc(OC3CCNCC3)ccc12 | 89.7 | 96.4 | 99.7 | 100 | 106 | 93.8 | 106 | 111 | 127 | 130 | 98.1 | 99.7 | 108 | 112 | 106 | 97.6 | 98.2 | 101 | 96.3 | 94.9 | 97.1 | 101 | 89.6 | 100 | 92 | > 10 | > 10 | > 10 | > 10 | > 10 | 0 | 0 | 0 | 0 | 0 |
| Cc1ccc2c(c1)C(=O)[C@]1(O)CCN(c3ccccc3)C1=N2 (racemic) [blebbistatin-(+/-)] | 100 ± 2.5 | 97.25 ± 0.49 | 97.9 ± 2.1 | 98.5 ± 1.1 | 94.2 ± 16 | 99 ± 11 | 95.9 ± 0.28 | 95.5 ± 10 | 109 ± 3.2 | 136 ± 9.8 | 98 ± 1.3 | 88.2 ± 0.92 | 98.3 ± 8.3 | 89 ± 9.6 | 96 ± 7 | 99.4 ± 1.6 | 101.2 ± 0.78 | 97.8 ± 1.8 | 99.85 ± 0.35 | 95.2 ± 12 | 98.6 ± 0.99 | 96.6 ± 4.5 | 96.4 ± 4.4 | 95.5 ± 3.9 | 93.4 ± 10 | > 10 | > 10 | > 10 | > 10 | > 10 | 0.3 ± 0.42 | 0 | 0 | 0.05 ± 0.071 | 0.15 ± 0.21 |
| C=C[C@H]1CN2CC[C@H]1CC2C(OC(=O)OCC)c1ccnc2ccc(OC)cc12 (stereo in doubt) [quinine-ethyl-carbonate] | 114 | 97.1 | 94.2 | 105 | 114 | 99.9 | 104 | 102 | 90.4 | 101 | 93.2 | 97.7 | 100 | 104 | 97.4 | 99.9 | 97.3 | 101 | 96.9 | 96.9 | 104 | 95.9 | 105 | 107 | 100 | > 10 | > 10 | > 10 | > 10 | > 10 | 0 | 0 | 0 | 0 | 0 |
